# Test results as given in US20250084453A1, “SYSTEMS, COMPOSITIONS AND METHODS FOR IDENTIFYING E3 LIGASE SUBSTRATES BY UBIQUITIN BIOTINYLATION” (The Broad Institute, Inc., priority 2022, published 2025).
# Columns and labels:
# VHL E3 ligase [1] = biological target: T1, VHL E3 ligase (UniProt P06709+P40337); assay: Ubiquitin biotinylation MS profiling of BET/PTK2 degraders in VHL-BirA cells; assay type: cell-based, human; details: A3-HA-Ub, 1 μM, 1 hour, FIG. 10
# T1 construct: expressed in transfected cells
# Procedure: (§1) Enrichment of biotinylated species by streptavidin-coated beads, protein digestion, and protein identification and quantification by mass spectrometry were performed exactly as described in Examples 3 and 4. Triplicate samples allowed for statistical analysis of differentially enriched proteins, represented by log 2-fold-change (FC) between the PROTAC®-treated group and the DMSO-treated group on the x-axis, and significance (p-value estimated by limma) on the y-axis in the figures.
# CRBN E3 ligase [2] = assay: Ubiquitin biotinylation MS profiling of BET/PTK2 degraders in CRBN-BirA cells; assay type: cell-based, human; details: A3-HA-Ub, 1 μM, 1 hour, FIG. 10
# Procedure: as §1
# PTK2 = PTK2 (Homo sapiens, UniProt Q05397); details: cited from earlier work
# CRBN E3 ligase [3] = assay: Ubiquitin biotinylation MS profiling of multikinase PROTACs in HEK293T CRBN-/- CRBN-BirA cells; assay type: cell-based, human; details: A3-HA-Ub; PROTAC 1 μM, 45 minutes after carfilzomib; FIGS. 13A-13D
# Excerpt: In this example, PROTAC® (proteolysis-targeting chimera) molecules that target kinases were created by linking certain kinase degraders with IMiDs analogs. (FIG. 12). PROTAC®s recruit a target protein to be in proximity to an E3 ubiquitin ligase to trigger protein degradation. The ubiquitinated targets of four CRBN-recruiting multi-kinase PROTAC®s were generated to contain the following multikinase degraders: SK-3-91, DB0646, SB1-G-187 and WH-10417-099. These four degraders can collectively induce degradation of a large number of distinct kinases (>125 distinct kinases). FIGS. 13A-13D show the results of a mass spectrometry experiment in which protein substrates susceptible to induced ubiquitination by the abovementioned four multikinase degraders were identified, respectively. These experiments were performed in HEK293T^CRBN−/− cells lentivirally engineered to express CRBN-BirA and transiently expressing A3-HA-Ub. While cultured in biotin-free medium, the cells were pre-treated with carfilzomib (carf; 0.4 μM) for 1 hour, and then were either treated or untreated with the kinase-targeting PROTAC®s (1 μM) for another 45 minutes. […] Enrichment of biotinylated species by streptavidin-coated beads, protein digestion, and protein identification and quantification by mass spectrometry were performed exactly as described in Example 3 and 4. Triplicate samples allowed for statistical analysis of differentially enriched proteins, represented by log 2-fold-change (FC) between the PROTAC®-treated group and the DMSO-treated group on the x-axis, and significance (p-value estimated by limma) on the y-axis in the figures. FIGS. 13A-13D present the induced ubiquitinated substrates for SK-3-91, DB0646, SB1-G-187 and WH-10417-099, respectively, shown and labeled in the upper right quadrant of the plot.
# [4] = biological target: T2, DCAF15 E3 ubiquitin ligase (UniProt P06709+Q14498+Q66K64); assay: Ubiquitin biotinylation MS profiling of molecular glue in HEK293T DCAF15-BirA cells; assay type: cell-based, human; details: A3-HA-Ub, 10 μM, 1 hour, FIG. 11
# T2 construct: expressed in transfected cells
# Procedure: The protocol used in this experiment is the same as that described in Example 6 above, except that the system was evaluated in a HEK293T cell line lentivirally engineered to express DCAF15-BirA and transiently expressing A3-HA-Ub. While cultured in biotin-free medium, the cells were pre-treated with carfilzomib (carf; 0.4 μM) for 1 hour, and then were either treated or untreated with E7820 (10 μM) for another hour. […] Enrichment of biotinylated species by streptavidin-coated beads, protein digestion, and protein identification and quantification by mass spectrometry were performed exactly as described in Examples 3 and 4. Triplicate samples allowed for statistical analysis of differentially enriched proteins, represented by log 2-fold-change (FC) between the E7820-treated group and the DMSO-treated group on the x-axis, and significance (p-value estimated by limma) on the y-axis in the figures. […] Consistent with the expected action of the E7820 glue in the system, the induced ubiquitinated protein RBM39/CAPERα was detected as the target of the E7820 sulfonamide, based on binding activity or protein degradation.
# VHL E3 ligase [5] = biological target: T1, VHL E3 ligase; assay: Ubiquitin biotinylation MS with VHL inhibitor in A375 cells expressing VHL-BirA; assay type: cell-based, human; details: MLN4924 pre-treatment and washout, VH298 30 minutes, FIG. 18
# Procedure: Experiments were conducted using the methods and systems described herein in conjunction with an inhibitor of an E3 ligase utilized in the experiment. […] The experiments were performed in A375 cells that transiently expressed A3-HA-Ub and VHL-BirA. While cultured in biotin-free medium, the cells were pre-treated with MLN4924 (1 μM) for 2 hours. Thereafter, MLN4924 was washed out of the cell culture with one PBS wash and was replaced with biotin-free medium.
# Next, the cells were lysed and kept on ice to terminate the reaction. Enrichment of biotinylated species by streptavidin-coated beads, protein digestion, and protein identification and quantification by mass spectrometry were performed exactly as described in Examples 3 and 4. The samples were analyzed in triplicate to allow for statistical analysis of differentially enriched proteins, represented by log 2-fold-change between the VH298-treated E3 ligase group and the wild-type E3 ligase group on the y-axis, and significance (p-value estimated by limma) on the x-axis in the figures. […] A decrease in biotinylation owing to the inhibitor treatment was observed. Consistent with the expected actions of VHL, HIF1A was identified as a substrate.
# CRBN E3 ligase [6] = assay: Ubiquitin biotinylation MS profiling of HDAC degrader in 293T CRBN-/- CRBN-BirA cells; assay type: cell-based, human; details: CRBN-BirA, A3-HA-Ub; 1 μM, 45 minutes; FIG. 14A
# Procedure: as §1, with “The experiments involving CRBN E3 ligase were performed in HEK293T^CRBN−/− cells lentivirally engineered to express CRBN-BirA and transiently expressing A3-HA-Ub. The HDAC degrader XY-07-097 was used in the experiments using the CRBN E3 ligase. The experiments involving VHL E3 ligase were performed in HEK293T cells lentivirally engineered to express VHL-BirA and transiently expressing A3-HA-Ub. The HDAC degrader XY-07-187 was used in the experiments using the VHL E3 ligase. […] Enrichment” for “Enrichment”, “Example” for “Examples”
# (§2) Desalted peptides were dried in a vacuum-centrifuged and reconstituted in 0.1% formic acid for LC-MS analysis. Data were collected using a TimsTOF Pro2 (Bruker Daltonics, Bremen, Germany) coupled to a nanoElute LC pump (Bruker Daltonics, Bremen, Germany) via a CaptiveSpray nano-electrospray source. […]
# VHL E3 ligase [7] = biological target: T1, VHL E3 ligase; assay: Ubiquitin biotinylation MS profiling of HDAC degrader in 293T VHL-BirA cells; assay type: cell-based, human; details: A3-HA-Ub, 1 μM, 45 minutes, FIG. 14B
# Procedure: as §1, with “The experiments involving CRBN E3 ligase were performed in HEK293T^CRBN−/− cells lentivirally engineered to express CRBN-BirA and transiently expressing A3-HA-Ub. The HDAC degrader XY-07-097 was used in the experiments using the CRBN E3 ligase. The experiments involving VHL E3 ligase were performed in HEK293T cells lentivirally engineered to express VHL-BirA and transiently expressing A3-HA-Ub. The HDAC degrader XY-07-187 was used in the experiments using the VHL E3 ligase. […] Enrichment” for “Enrichment”, “Example” for “Examples”
# as §2
# GSPT1 = GSPT1 degradation by Western blot in HEK293T cells and CRBN-/- derivatives; assay type: cell-based, human; details: carfilzomib 0.4 μM 1 hour before CC-885 1 μM
# Procedure: However, instead of assessing transiently-expressed V5-tagged IKZF1, an endogenous neo-substrate of CRBN, namely, GSPT1, was assessed. […] Following incubation with the components and added agents, the cells were lysed, and streptavidin-coated beads were used to capture from the cell lysate biotinylated, ubiquitinated proteins, e.g., the endogenous GSPT1 substrate. The biotinylated proteins eluted from the beads were subjected to Western blot analyses.
# BET bromodomains = details: degrader of BET bromodomains; cited from earlier work
# V5-IKZF1 = biological target: T3, V5-IKZF1 (Homo sapiens, UniProt Q13422+Q96SW2); assay: Streptavidin pulldown and Western blot of biotinylated ubiquitinated V5-IKZF1 in 293T CRBN-/- CRBN-BirA cells; assay type: cell-based
# T3 construct: expressed in transfected cells; host or cells: 293T CRBN-/- cells stably expressing CRBN-BirA; pRK5 vector, transient
# Procedure: One day (approximately 24 hours) after the transfection, DMSO (untreated) or carfilzomib (0.4 μM), (“carf”), was added to the cells for 1 hour.
# A portion of the lysates (referred to as inputs) were saved for Western blotting analyses. […] The eluates were analyzed by SDS-PAGE gel electrophoresis and Western blotting analyses.
# The preparation of cellular lysate was as described above for Cell Lysis, except that the RIPA buffer was supplemented with COMPLETE™ EDTA-free protease inhibitor cocktail (Roche; 04693159001; 1 tablet per 10 ml of buffer), benzonase (Millipore; E1014; 1 μl per 10 ml of buffer), 1.5 mM MgCl2, 1 mM EGTA, and 10 mM NEM (N-ethylmaleimide). For each sample, 1 ml of 3 mg/ml lysate was rotated overnight at 4° C. with 50 μl of resuspended streptavidin Sepharose beads (CYTIVA™; 17511301), which were pre-washed with RIPA lysis buffer 3 times. For all steps that required pelleting of beads, centrifugation was performed at 400×g for 1 minute. On the next day, streptavidin beads were pelleted, and the supernatant (a.k.a. flow-through) was either saved for analysis by Western blotting or was discarded. Streptavidin beads were then washed two times with 1 ml of 2% SDS wash buffer (2% SDS, 25 mM Tris-HCl, pH 7.5), and three times with 0.5-1 ml of 2M urea wash buffer (2M urea, 50 mM Tris-HCl, pH 8). Between each wash, the beads were rotated at room temperature for at least 5 minutes. During the last wash, the beads and the washing buffer were transferred to a new microfuge tube. […] For mass spectrometry-based analysis, the procedures described in On-bead Digestion below were used.
# On the next day, the cells were transfected using pRK5-Avi-HA-ubiquitin or pRK5-A3-HA-ubiquitin in serum-free DMEM.
# BirA [8] = biological target: T4, BirA (Escherichia coli, UniProt P06709)
# BirA [9] = biological target: T4, BirA; details: cited from earlier work
# T1 sequence (P40337+P06709 fused): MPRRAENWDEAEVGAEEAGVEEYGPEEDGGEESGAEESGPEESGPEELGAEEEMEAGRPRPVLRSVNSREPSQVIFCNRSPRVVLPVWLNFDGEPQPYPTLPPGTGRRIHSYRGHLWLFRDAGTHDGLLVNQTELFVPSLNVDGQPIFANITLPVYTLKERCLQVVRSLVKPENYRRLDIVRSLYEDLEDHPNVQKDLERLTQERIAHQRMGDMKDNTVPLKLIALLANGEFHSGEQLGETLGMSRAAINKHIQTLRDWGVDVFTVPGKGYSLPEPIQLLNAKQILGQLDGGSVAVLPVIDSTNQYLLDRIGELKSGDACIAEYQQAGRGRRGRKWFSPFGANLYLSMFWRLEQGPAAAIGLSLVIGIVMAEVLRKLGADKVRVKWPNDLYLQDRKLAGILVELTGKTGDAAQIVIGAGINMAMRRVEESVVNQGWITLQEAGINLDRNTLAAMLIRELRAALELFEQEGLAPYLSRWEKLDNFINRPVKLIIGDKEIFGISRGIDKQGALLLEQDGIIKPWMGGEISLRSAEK
# T1 sequence (Q15369 whole entry, further chain): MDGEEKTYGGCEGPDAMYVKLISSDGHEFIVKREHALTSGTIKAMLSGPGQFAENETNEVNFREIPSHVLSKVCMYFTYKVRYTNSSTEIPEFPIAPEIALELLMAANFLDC
# T1 sequence (Q15370 whole entry, further chain): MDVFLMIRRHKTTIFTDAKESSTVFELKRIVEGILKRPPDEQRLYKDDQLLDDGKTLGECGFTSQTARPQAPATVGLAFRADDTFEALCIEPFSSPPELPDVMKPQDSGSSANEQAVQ
# T3 sequence (Q13422 whole entry): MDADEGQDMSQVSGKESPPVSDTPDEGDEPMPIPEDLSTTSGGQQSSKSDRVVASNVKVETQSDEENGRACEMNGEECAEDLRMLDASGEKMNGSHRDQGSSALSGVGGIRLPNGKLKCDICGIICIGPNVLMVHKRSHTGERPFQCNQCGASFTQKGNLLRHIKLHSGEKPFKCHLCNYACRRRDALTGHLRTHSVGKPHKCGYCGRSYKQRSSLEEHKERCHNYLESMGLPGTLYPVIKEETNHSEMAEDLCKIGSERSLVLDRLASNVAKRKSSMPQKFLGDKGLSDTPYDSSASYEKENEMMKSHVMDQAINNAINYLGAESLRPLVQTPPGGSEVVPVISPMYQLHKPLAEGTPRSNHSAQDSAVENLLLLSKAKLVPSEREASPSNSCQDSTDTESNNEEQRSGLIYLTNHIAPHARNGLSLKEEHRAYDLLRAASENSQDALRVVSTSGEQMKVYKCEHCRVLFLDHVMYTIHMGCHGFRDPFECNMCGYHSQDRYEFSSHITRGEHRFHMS
# T3 sequence (Q96SW2 whole entry): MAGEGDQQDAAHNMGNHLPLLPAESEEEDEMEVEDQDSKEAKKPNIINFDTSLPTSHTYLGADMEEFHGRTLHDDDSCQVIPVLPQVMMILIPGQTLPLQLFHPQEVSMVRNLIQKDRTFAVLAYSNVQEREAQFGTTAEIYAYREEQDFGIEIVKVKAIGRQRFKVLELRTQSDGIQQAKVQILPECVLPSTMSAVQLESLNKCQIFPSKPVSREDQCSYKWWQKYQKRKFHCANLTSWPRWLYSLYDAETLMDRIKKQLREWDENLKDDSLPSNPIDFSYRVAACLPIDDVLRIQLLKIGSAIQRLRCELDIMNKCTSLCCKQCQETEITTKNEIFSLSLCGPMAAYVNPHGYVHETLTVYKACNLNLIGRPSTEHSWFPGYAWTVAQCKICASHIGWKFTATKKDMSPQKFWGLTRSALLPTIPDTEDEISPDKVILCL
# T4 sequence (P06709 whole entry): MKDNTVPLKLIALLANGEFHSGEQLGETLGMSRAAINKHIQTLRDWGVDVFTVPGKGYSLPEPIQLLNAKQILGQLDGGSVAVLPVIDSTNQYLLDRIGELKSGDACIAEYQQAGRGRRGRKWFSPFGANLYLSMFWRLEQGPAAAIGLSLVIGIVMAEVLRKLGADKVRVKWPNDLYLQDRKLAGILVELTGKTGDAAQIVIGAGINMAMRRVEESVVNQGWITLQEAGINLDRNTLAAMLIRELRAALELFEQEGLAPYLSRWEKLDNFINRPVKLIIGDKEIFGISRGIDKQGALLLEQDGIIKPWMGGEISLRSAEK
# Chain of PTK2 (Q05397 whole entry): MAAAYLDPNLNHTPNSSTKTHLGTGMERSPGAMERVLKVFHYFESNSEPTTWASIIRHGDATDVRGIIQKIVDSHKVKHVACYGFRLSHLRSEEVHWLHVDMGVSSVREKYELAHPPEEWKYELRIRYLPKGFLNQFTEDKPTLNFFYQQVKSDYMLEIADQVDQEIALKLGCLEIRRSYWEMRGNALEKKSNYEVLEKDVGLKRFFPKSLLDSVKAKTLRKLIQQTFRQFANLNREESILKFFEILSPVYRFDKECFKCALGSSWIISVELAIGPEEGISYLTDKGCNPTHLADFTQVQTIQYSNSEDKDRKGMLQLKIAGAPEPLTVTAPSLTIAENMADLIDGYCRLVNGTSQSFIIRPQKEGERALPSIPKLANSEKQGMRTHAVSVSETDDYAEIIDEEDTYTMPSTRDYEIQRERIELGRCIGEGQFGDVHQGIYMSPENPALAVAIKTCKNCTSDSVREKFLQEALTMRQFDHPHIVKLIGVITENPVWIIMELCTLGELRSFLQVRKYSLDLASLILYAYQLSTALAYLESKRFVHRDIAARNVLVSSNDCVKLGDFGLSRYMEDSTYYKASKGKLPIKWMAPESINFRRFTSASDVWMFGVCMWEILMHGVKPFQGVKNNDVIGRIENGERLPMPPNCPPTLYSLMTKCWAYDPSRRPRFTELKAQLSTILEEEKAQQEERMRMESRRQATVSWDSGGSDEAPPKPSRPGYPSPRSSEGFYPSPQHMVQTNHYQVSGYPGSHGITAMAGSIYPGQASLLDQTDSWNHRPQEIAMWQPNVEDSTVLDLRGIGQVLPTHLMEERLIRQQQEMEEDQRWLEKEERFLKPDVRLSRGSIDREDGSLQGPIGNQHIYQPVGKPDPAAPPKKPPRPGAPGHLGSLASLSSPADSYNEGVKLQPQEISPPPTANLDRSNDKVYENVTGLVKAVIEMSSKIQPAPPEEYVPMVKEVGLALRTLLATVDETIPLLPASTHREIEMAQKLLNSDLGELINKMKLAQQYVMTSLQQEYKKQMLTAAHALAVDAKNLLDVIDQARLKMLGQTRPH
compound,measurement,setting,value
Cc1ncsc1-c1ccc([C@H](C)NC(=O)[C@@H]2C[C@@H](O)CN2C(=O)[C@@H](NC(=O)COCCCOCCNC(=O)C[C@@H]2N=C(c3ccc(Cl)cc3)c3c(sc(C)c3C)-n3c(C)nnc32)C(C)(C)C)cc1 [ARV-771],Induced ubiquitinated substrates versus DMSO,VHL E3 ligase [1],"BRD2, BRD3, BRD4"
COc1cc(C(=O)NCCOCCOCCOCC(=O)N[C@H](C(=O)N2C[C@H](O)C[C@H]2C(=O)NCc2ccc(-c3scnc3C)cc2)C(C)(C)C)ccc1Nc1ncc(C(F)(F)F)c(Oc2cccc3c2C(=O)CC3)n1 [BI-0319],Induced ubiquitinated substrates versus DMSO,VHL E3 ligase [1],PTK2
COc1cc(C(=O)NCCOCCOCCOCCC(=O)Nc2cccc3c2C(=O)N(C2CCC(=O)NC2=O)C3=O)ccc1Nc1ncc(C(F)(F)F)c(Oc2cccc3c2C(=O)CC3)n1 (centres unmarked) [BI-3663],Induced ubiquitinated substrates versus DMSO,CRBN E3 ligase [2],PTK2
same,IC50,PTK2,18 nM
Cc1ccc(NC(=O)c2cccc(C(F)(F)F)c2)cc1N1Cc2cnc(Nc3ccc(N4CCN(Cc5cn(CCCCCOc6cccc7c6C(=O)N(C6CCC(=O)NC6=O)C7=O)nn5)CC4)nc3)nc2N(C)C1=O (centres unmarked) [DB0646],Induced ubiquitinated proteins versus DMSO,CRBN E3 ligase [3],the majority of the induced ubiquitinated proteins detected were kinase targets
Cc1ccc(NS(=O)(=O)c2cccc(C#N)c2)c2[nH]cc(C#N)c12 [E7820],Induced ubiquitinated substrate versus DMSO,[4],RBM39/CAPERα
Cc1ccc(C(=O)Nc2ccc(CN3CCN(CCCOCCOCCOCCNC(=O)COc4cccc5c4C(=O)N(C4CCC(=O)NC4=O)C5=O)CC3)c(C(F)(F)F)c2)cc1C#Cc1cnc2cccnn12 (centres unmarked) [SB1-G-187],Induced ubiquitinated proteins versus DMSO,CRBN E3 ligase [3],the majority of the induced ubiquitinated proteins detected were kinase targets
CC(C)S(=O)(=O)c1ccccc1Nc1nc(Nc2ccc(N3CCN(CCOCCNC(=O)CNc4cccc5c4C(=O)N(C4CCC(=O)NC4=O)C5=O)CC3)cc2)ncc1Cl (centres unmarked) [SK-3-91],Induced ubiquitinated proteins versus DMSO,CRBN E3 ligase [3],the majority of the induced ubiquitinated proteins detected were kinase targets
Cc1ncsc1-c1ccc(CNC(=O)[C@@H]2C[C@@H](O)CN2C(=O)[C@@H](NC(=O)C2(C#N)CC2)C(C)(C)C)cc1 [VH298],VHL substrate revealed by decrease in biotinylation owing to the inhibitor treatment,VHL E3 ligase [5],HIF1A
O=C(/C=C/c1ccc(CN(CCCCCNc2cccc3c2C(=O)N(C2CCC(=O)NC2=O)C3=O)CCc2c[nH]c3ccccc23)cc1)NO (centres unmarked) [XY-07-097],Induced ubiquitinated HDAC substrates versus DMSO,CRBN E3 ligase [6],"HDAC2, HDAC6, and HDAC8"
Cc1ncsc1-c1ccc(CNC(=O)[C@@H]2C[C@@H](O)CN2C(=O)C(NC(=O)C2(F)CC2)C(C)(C)C)c(OCCCCCN(CCc2c[nH]c3ccccc23)Cc2ccc(/C=C/C(=O)NO)cc2)c1 (some centres unmarked) [XY-07-187],Induced ubiquitinated HDAC substrates versus DMSO,VHL E3 ligase [7],"HDAC1, HDAC2, HDAC6, and HDAC8"
CC(C)C[C@H](NC(=O)[C@H](CCc1ccccc1)NC(=O)CN1CCOCC1)C(=O)N[C@@H](Cc1ccccc1)C(=O)N[C@@H](CC(C)C)C(=O)[C@@]1(C)CO1 [carfilzomib],Rescue of CC-885-induced GSPT1 degradation,GSPT1,partially rescued
Cc1sc2c(c1C)C(c1ccc(Cl)cc1)=N[C@@H](CC(=O)NCCCCCCCCNC(=O)COc1cccc3c1C(=O)N(C1CCC(=O)NC1=O)C3=O)c1nnc(C)n1-2 (some centres unmarked) [dBET6],Induced ubiquitinated substrates versus DMSO,CRBN E3 ligase [2],"BRD2, BRD3, BRD4"
same,IC50,BET bromodomains,~10 nM
Nc1cccc2c1C(=O)N(C1CCC(=O)NC1=O)C2=O (centres unmarked) [pomalidomide],Induced ubiquitination of IKZF1 by E3 ligase CRBN,V5-IKZF1,showed pomalidomide-induced ubiquitination of IKZF1
same,Mono- and poly-ubiquitinated V5-IKZF1 captured by streptavidin beads,V5-IKZF1,increased amount
same,Ubiquitinated V5-IKZF1 captured by streptavidin beads compared with DMSO,V5-IKZF1,approximately 3.9 fold
GLNDIFEAQKIE [A3-Tag],Increase in Km relative to Avi-Tag,BirA [8],~14 fold
same,Km,BirA [9],345 µM
GLNDIFEAQKIEWHE [Avi-Tag],Km,BirA [9],25 µM
